Earlier results as cited in patent US20250295673A1, “TREATMENT OF BREAST CANCER” (priority 2024, published 2025).
Entries after “also recorded” stand apart in the source; their conditions may differ.

Experiments:
[1] = target: T1, SHBG (Homo sapiens, UniProt P04278); details: releases testosterone, nandrolone, oxandrolone from SHBG
T1 sequence (P04278 30-402): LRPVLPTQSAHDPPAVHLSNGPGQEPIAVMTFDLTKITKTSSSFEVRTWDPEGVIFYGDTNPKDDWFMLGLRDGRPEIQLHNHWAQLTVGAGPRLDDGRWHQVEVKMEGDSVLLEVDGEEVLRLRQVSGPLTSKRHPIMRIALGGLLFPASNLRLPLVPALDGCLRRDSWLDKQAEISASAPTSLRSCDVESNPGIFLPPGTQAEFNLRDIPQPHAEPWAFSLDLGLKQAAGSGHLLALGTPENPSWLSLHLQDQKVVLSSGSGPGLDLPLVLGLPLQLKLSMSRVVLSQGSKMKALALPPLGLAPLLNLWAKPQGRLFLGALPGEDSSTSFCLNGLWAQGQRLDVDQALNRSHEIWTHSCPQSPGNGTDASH

[2] = tested on: brain oxytocin; details: topically applied vaginally
[3] = tested on: FSH (Follicle Stimulating Hormone) and LH (Leutinizing Hormone) release; details: nandrolone alone

C[C@]12Cc3c[nH]nc3C[C@@H]1CC[C@@H]1[C@@H]2CC[C@@]2(C)[C@H]1CC[C@]2(C)O [stanozolol]
net increase of androgens by release from SHBG [1]: four-fold
effect on brain oxytocin [2]: increases brain oxytocin; also recorded: raises a user's oxytocin levels

C[C@]12CC[C@H]3[C@@H](CCC4=CC(=O)CC[C@@H]43)[C@@H]1CC[C@@H]2O [nandrolone]
effect on FSH and LH release from the pituitary [3]: suppresses
